{"source": "patent US12084444B2", "about": "“Spiro-lactam NMDA modulators and methods of using same” (Tenacia Biotechnology (Hong Kong) Co., Limited, priority 2016, dated 2024)", "test_system": "Sprague Dawley rats", "test": "Porsolt forced swim test", "assay_type": "in vivo", "details": "0.1 mg/kg; for % reduction in float time: relative to vehicle group", "method": "A non-clinical in vivo pharmacology study (Porsolt assay) was performed to measure antidepressant-like effects. A negative control (0.5% sodium carboxymethyl cellulose in 0.9% sterile saline vehicle) and a positive control (fluoxetine) are shown for comparison against test compound. The study allowed for the evaluation of the effects of each compound on the Porsolt forced swim test as assessed by the rats' response (reduced floating time) during a 5-minute swimming test.\nMale 2-3 month old Sprague Dawley rats were used (Harlan, Indianapolis, IN). Rats were housed in Lucite cages with aspen wood chip bedding, maintained on a 12:12 light:dark cycle (lights on at 5 AM), and given ad libitum access to Purina lab chow (USA) and tap water throughout the study.\nThe Porsolt forced swim test adapted for use in rats was performed as described by Burgdorf et al., (The long-lasting antidepressant effects of rapastinel (GLYX-13) are associated with a metaplasticity process in the medial prefrontal cortex and hippocampus. Neuroscience 308:202-211, 2015). Animals were placed in a 46 cm tall×20 cm in diameter clear glass tube filled to 30 cm with tap water (23±1° C.) for 15 min on the first day (habituation) and 5 min on the subsequent test day. Positive control fluoxetine was dosed 3 times (24 h, 5 h and 1 h) prior to testing. Animals were tested 1 h or 24 h post-dosing with the test compounds or vehicle. Animals received a 15 min habituation session 1 day before the 5 min test. Water was changed after every other animal. Animals were videotaped, and floating time as defined as the minimal amount of effort required to keep the animals head above water was scored offline by a blinded experimenter with high inter-rater reliability (Pearson's r>0.9).\nEach compound tested at dose level shown. Significance vs. vehicle group for each experiment is marked. […] A compound marked “No” was not statistically significant from vehicle. Data was averaged for test compound and vehicle groups (N approximately 8 per group) and the percent reduction in floating for group treated with test compound relative to group treated with vehicle is shown.", "data": [{"smiles": "COc1ccc(CN2C[C@@]3(CCNC(=O)C3)C2=O)cc1", "note": "[Compound AA-2, 2-(4-methoxybenzyl)-2,7-diazaspiro[3.5]nonane-1,6-dione]", "values": [{"measurement": "Significance vs. vehicle", "setting": "1 h post-dose", "value": "Yes (found to be statistically significant (p<=0.05) from vehicle at dose level shown)"}, {"measurement": "% reduction in float time", "setting": "1 h post-dose", "value": 51.5, "unit": "%"}, {"measurement": "Significance vs. vehicle", "setting": "24 h post-dose", "value": "Yes (found to be statistically significant (p<=0.05) from vehicle at dose level shown)"}, {"measurement": "% reduction in float time", "setting": "24 h post-dose", "value": 77.80, "unit": "%"}]}]}
